These results are taken from article PMC4937837 (Journal of Medicinal Chemistry, 2015).

The conditions of this data set: mouse liver microsomes, NADPH, 1 μM compound, 1 h incubation. In general terms: Liver microsomes are vesicles of endoplasmic reticulum, rich in cytochrome P450 enzymes.

Take `O=C(NCCCCN1CCN(c2cccc3ccccc23)CC1)c1cnc2ccccc2c1` [Compound 32, N-(4-(4-(Naphthalen-1-yl)piperazin-1-yl)butyl)quinoline-3-carboxamide]: the “in vitro rate constant (k)” value is recorded as −0.017.
